Assays:
[1] = test system: rabbit tracheal epithelium; experiment: Retroviral or adenoviral gene transfer to rabbit tracheal epithelium after EGTA pretreatment; type: in vivo; conditions: retroviral (MuLV, KGF pretreated) or adenoviral vector, three days
Procedure: Gene transfer to the rabbit tracheal epithelium In Vito. Adult New Zealand white rabbits were anesthetized with 32 mg/kg ketamnine, 5.1 mg/kg xylazine and 0.8 mg/kg acepromazine intramuscularly. Using sterile technique, a ventral midline incision was made, exposing the trachea for tracheotomy. A ˜1.5 cm tracheal segment cephalad to the tracheotomy was isolated, and cannulated on each end with PE 330 tubing (Clay Adams, Becton Dickinson). The tracheal segment was first rinsed and then filled with a solution of 12 mM EGTA in water for 45 min. The EGTA solution was removed, and as replaced with 300 μl of retrovirus (titer 3×10^9 cfu/ml) or adenovirus (titer 1×10^10 pfu/ml) vector. In control animals, saline was substituted for water and EGTA treatment. Animals that received the MuLV retrovirus were pretreated with keratinocyte growth factor (KGF) prior to gene transfer to stimulate epithelial proliferation (˜5 mg/kg intravenously and 600 μg via nasal instillation for 3 doses given 36, 24 and 12 hr preceding the procedure) (Wang et al., 1998; Wang et al., 1999). The vector solution was left in place for an additional 45 min. and then the cannulae were removed, the incisions closed, and animals were allowed to recover. Three days later, animals were sacrificed, and the tissues studied for β-galactosidase expression.

[2] = test system: human bronchial epithelial cells; type: cell-based
Procedure: Primary human airway epithelial cells were collected by enzymatic digestion of bronchial samples from lung transplants as previously described (Kondo et al., 1991; Zabner et al., 1996). Isolated airway primary cells were seeded at a density of 5×10^5 cells/cm^2 onto collagen-coated Millicell-HA culture inserts (Millipore, Bedford, Mass.). Primary cultures were grown at the air-liquid interface for more than 2 wk, at which time differentiation into a mucociliary epithelium occurs. The culture medium, used to feed only the basolateral side of the cells, contained 49% Dulbecco's modified Eagle's medium (DMEM), 49% Ham's F12, and 2% Ultraser G (BioSepra, Cedex, France).
Recombinant AAV virus was produced by a CaPO4 co-transfection protocol and was purified through three rounds of isopycnic cesium chloride ultracentrifuigation, as previously described (Duan et al., 1997). The proviral plasmid, pCisAV.GFP3ori, was used to generate rAAV (AV.GFP3ori), which encoded the enhanced green fluorescent protein (EGFP) reporter gene under the transcriptional control of the cytomegalovirus (CVM) enhancer/promoter and simian virus 40 (SV40) polyadenylation signal (Duan et al., 1998). Recombinant viral stocks were heated at 58° C. for 60 min to inactivate contaminating helper adenovirus. Typical yields were 1×10^9 particles/μl, determined on the basis of DNA slot-blot hybridization assays against plasmid standards. The level of adenoviral contamination, as based on a second reporter assay for the recombinant adenovirus used for propagation (Ad.CMVAlkphos) (Duane et al., 1997), was less than 1 functional particle per 1×10^10 DNA particles of rAAV. Viral preparations were evaluated for the contamination of wild type AAV (wtAAV) by immunocytochemical staining of AV.GFP3ori/Ad.CMVLacZ (Duan et al., 1998)-coinfected 293 cells with anti-Rep antibodies (American Research Products, Belmont, Mass.). […] Transfection with Rep/Cap-encoding plasmids served as controls for antibody staining of Rep protein. Virus was dialyzed in phosphate-buffered saline (PBS) prior to application on primary airway cultures. […]

## O=C(O)CN(CCOCCOCCN(CC(=O)O)CC(=O)O)CC(=O)O [EGTA]
[1]
  gene transfer to tracheal epithelium after pretreatment with 12 mM EGTA in water: transduced cells throughout the tracheal epithelium
[2]
  apical transduction after EGTA, lower than maximal basolateral level: 20 fold
  rAAV transduction, EGTA and virus on basolateral side: no significant differences were seen in the extent of rAAV
[2]; 40 days after hypotonic/EGTA treatment
  integrity of the monolayers by light microscopy: No significant differences were detected in the integrity of the monolayers

From patent publication US6855549B1, “Methods and compositions for increasing the infectivity of gene transfer vectors” (The University of Iowa Research Foundation, priority 1998, dated 2005)
